From patent US11883383B2, “Pharmaceutically acceptable salts of [3-(4- {2-butyl-1-[4-(4-chloro-phenoxy)-phenyl]-1H-imidazol-4-yl} -phenoxy)-propyl]-diethyl-amine” (vTv Therapeutics LLC, priority 2018, dated 2024)
Like-named read-outs stand apart in the source and are kept apart here.

What was measured:
Assay type in all cases: physicochemical
[1] = Thermogravimetric analysis (TGA) weight loss of crystalline hits; details: for Speculated Form: based on TGA/DSC characterization data
Procedure: (§1) TGA data were collected using a TA Q500 and Q550 from TA Instruments. DSC was performed using a TA Q2000 from TA Instruments. DSC was calibrated with Indium reference standard and the TGA was calibrated using nickel reference standard.
(§2) All hits were further characterized by TGA and DSC, with the stoichiometry determined by ^1H NMR or HPLC/IC. Based on the characterization data in Table 2 below, most of them were considered to be anhydrates.

[2] = Differential scanning calorimetry (DSC) endotherms of crystalline hits; details: for DSC Endo. (onset, ° C.): onset temperature
Procedure: as §1, §2

[3] = Stoichiometry (acid/freebase) by 1H NMR or HPLC/IC
Text: Solution NMR was collected on Bruker 500M NMR Spectrometer using DMSO-d6 and CD3OD as solvents.
Agilent 1100 HPLC was utilized to analyze the purity and stoichiometry, with detailed method listed in below.
IC method for counter-ion content measurement is listed below.
as §2

[4] = Salt/co-crystal screening: 38 acids, eight solvent systems, solids analysed by XRPD; details: acid/freebase charge 1:1 unless label says 2:1, stirred at RT, else 5° C. slurry, anti-solvent addition or evaporation (footnote marks)
Procedure: XRPD analysis was performed with a Panalytical X'Pert^3 Powder XRPD on a Si zero-background holder. The 2θ position was calibrated against Panalytical Si reference standard disc.
A total of 320 salt/co-crystal screening experiments were conducted using 38 acids (two molar ratios for HCl and HBr) and eight solvent systems. Specifically, freebase stock solutions of ˜100 mg/mL were first prepared in each solvent system. For each experiment, 0.2 mL stock solution and the corresponding acids were mixed in a molar charge ratio of 1:1 (acid/freebase, 2:1 for HCl/freebase and HBr/freebase as well), and then stirred at RT. After stirring for 3-5 days, if precipitation was observed, the precipitate was isolated. It no precipitation, the clear solutions were first transferred to slurry at 5° C. to introduce precipitation. Solutions without any precipitation were further subjected to anti-solvent addition (for solvents in column B/D, 0.5 mL hexane was added; for solvents in column G/H, 0.5 mL water was added; for solvent in column F, 0.5 mL n-heptane was added). If still no precipitation, the final clear solutions were transferred to evaporation at RT to induce precipitation. All solids isolated were vacuum dried at RT for 2 hrs before XRPD analysis.

| Structure (SMILES) | TGA Wt. Loss (%) [1] | Speculated Form [1] | DSC Endo. (onset, ° C.) [2] | Stoichiometry (acid/base) [3] | TGA Wt. Loss (%) ([1]; up to 130° C.) | DSC Endo., peak temperature ([2]; peak temperature (footnote *)) | TGA Wt. Loss (%) ([1]; up to 120° C.) | Solid obtained in salt screening (XRPD), solvent D Acetone/Hexane (1:2, v/v) [4] | Solid obtained in salt screening (XRPD), solvent H Dioxane/H2O (9:1, v/v) [4] | Solid obtained in salt screening (XRPD), solvent A Ethanol [4] | Solid obtained in salt screening (XRPD), solvent G Methanol/H2O (19:1, v/v) [4] | Solid obtained in salt screening (XRPD), solvent F Methyl tertbutyl ether [4] | Solid obtained in salt screening (XRPD), solvent C THF [4] | Solid obtained in salt screening (XRPD), solvent E Toluene [4] | Solid obtained in salt screening (XRPD), solvent B Ethyl acetate/Hexane (1:2, v/v) [4] |
| --- | --- | --- | --- | --- | --- | --- | --- | --- | --- | --- | --- | --- | --- | --- | --- |
| CCCCc1nc(-c2ccc(OCCCN(CC)CC)cc2)cn1-c1ccc(Oc2ccc(Cl)cc2)cc1.O=C(O)/C=C/C(=O)O [Fumarate Type A] | negligible | Anhydrate | 115.0 °C | 1.00 | – | – | – | – | – | – | – | – | – | – | – |
| CCCCc1nc(-c2ccc(OCCCN(CC)CC)cc2)cn1-c1ccc(Oc2ccc(Cl)cc2)cc1.O=C(O)[C@@H](O)[C@H](O)[C@H](O)[C@@H](O)C(=O)O [Galactarate Type A] | – | Anhydrate | 158.4 °C | 0.98 | 0.6 up to % | 106.3 °C | – | – | – | – | – | – | – | – | – |
| CCCCc1nc(-c2ccc(OCCCN(CC)CC)cc2)cn1-c1ccc(Oc2ccc(Cl)cc2)cc1.O=C(O)c1cc(O)ccc1O [Gentisate Type A] | – | Hydrate | – | 1.01 | – | – | 1.8 up to % | – | – | – | – | – | – | – | – |
| Br.CCCCc1nc(-c2ccc(OCCCN(CC)CC)cc2)cn1-c1ccc(Oc2ccc(Cl)cc2)cc1 [HBr salt Type B] | negligible | Anhydrate | – | 2.07 | – | – | – | – | – | – | – | – | – | – | – |
| CS(=O)(=O)O [Methane sulfonic acid] | – | – | – | – | – | – | – | gel | gel* | gel* | gel* | amorphous | gel | gel* | – |
| O=C(O)c1cccnc1 [Nicotinic acid] | – | – | – | – | – | – | – | – | amorphous* | gel* | amorphous* | nicotinic acid | gel* | – | nicotinic acid |
| O=C(O)C(=O)O [Oxalic acid] | – | – | – | – | – | – | – | – | – | – | gel* | – | – | – | – |
| CCCCCCCCCCCCCCCC(=O)O [Palmitic acid] | – | – | – | – | – | – | – | gel* | gel* | gel* | FB Type A^& | gel* | gel* | gel* | gel* |
| CCC(=O)O [Propionic acid] | – | – | – | – | – | – | – | gel* | amorphous* | gel* | FB Type A^& | FB Type B* | gel* | gel* | FB Type A |
| O=C(O)[C@H](O)c1ccccc1 [R-mandelic acid] | – | – | – | – | – | – | – | gel | amorphous* | amorphous* | amorphous* | gel | gel | gel | gel* |
| O=C1NS(=O)(=O)c2ccccc21 [Saccharin] | – | – | – | – | – | – | – | gel | amorphous* | amorphous* | – | – | gel | gel | – |
| O=C(O)c1ccccc1O [Salicyclic acid] | – | – | – | – | – | – | – | amorphous* | amorphous* | gel* | amorphous* | amorphous^& | gel* | gel* | amorphous* |
| CCCCCCCCCCCCCCCCCC(=O)O [Stearic acid] | – | – | – | – | – | – | – | – | amorphous^& | – | – | FB Type A* | – | – | – |
| O=C(O)CCC(=O)O [Succnic acid] | – | – | – | – | – | – | – | amorphous* | amorphous* | gel* | amorphous* | FB Type B* | gel* | gel* | amorphous* |
| COc1cc(C(=O)O)ccc1O [Vanillic acid] | – | – | – | – | – | – | – | – | amorphous* | amorphous | amorphous* | – | gel | gel | – |
| COc1cc(C=O)ccc1O [Vanillin] | – | – | – | – | – | – | – | gel* | FB Type A^& | gel* | amorphous^& | amorphous* | gel | gel | gel* |
| O=C(O)/C=C/c1ccccc1 [trans Cinnamic acid] | – | – | – | – | – | – | – | gel | amorphous* | amorphous | amorphous* | amorphous* | gel | gel | gel |
